US4500526A, “Cephalosporin derivatives” (Bristol-Myers Company, priority 1983, dated 1985)
≈ marks a conversion by molar mass, not a printed value. Like-named read-outs stand apart in the source and are kept apart here.

What was measured:
[1] = system: Penicillinresistant S. aureus (5 strains); assay: MIC, two-fold serial agar dilution, group (G+)-Ib; format: cell-based; conditions: Staphylococcus aureus; (G+)-Ib, 5 strains, Mueller-Hinton agar; read-out: Geometric Mean of MIC
Experimental: (§1) In the primary evaluation of the compounds of this invention, the Minimum Inhibitory Concentrations (MIC's) of the compounds were determined by the two-fold serial agar dilution method in Mueller-Hinton agar against 32 strains of test organisms in six groups. The sample weights of the test compounds were adjusted according to the purity of each compound, so as to give a more accurate measure of the MIC's.
(G+)Ib: Penicillinresistant S. aureus (5 strains)

P. aeruginosa A9843 = assay: Median protective dose in infected mice; format: in vivo; conditions: Pseudomonas aeruginosa, im, immediately after intraperitoneal challenge, read-out: PD50
Experimental: (§2) The median protective dose (PD50) of some of the preferred compounds against various microorganisms was determined in mice by intramuscular administration of the test compound immediately after an intraperitoneal bacterial challenge.

S. aureus Smith = assay: Median protective dose in infected mice; format: in vivo; conditions: Staphylococcus aureus, im, immediately after intraperitoneal challenge, read-out: PD50
Experimental: as §2

E. coli Juhl = assay: Median protective dose in infected mice; format: in vivo; conditions: Escherichia coli, im, immediately after intraperitoneal challenge, read-out: PD50
Experimental: as §2

[2] = Mouse blood levels after single intramuscular injection; format: in vivo, mice; conditions: in vivo, im, 20 mg/kg
Experimental: The absorption of some of the preferred compounds were determined in mice following a single intramuscular injection of the test compound (dissolved in 0.1M phosphate buffer; pH 7) at a dosage of 20 mg/kg. Blood samples were collected from the orbital sinuses into heparinized capillary tubes and assayed in Nutrient Agar (pH 6.6) using E. coli Ess-22-31 as the test organism. The blood levels at various time intervals, the half-life values (t1/2) and the areas under the curve (AUC) are shown in Table 2.

[3] = system: Cephalothinsensitive E. coli (2 strains), Kl. pneumoniae (1 strain) and Pr. mirabilis (2 strains); assay: MIC, two-fold serial agar dilution, group (G-)-Ia; format: cell-based; conditions: 5 strains, Mueller-Hinton agar, read-out: Geometric Mean of MIC
Experimental: as §1
(G-)Ia: Cephalothinsensitive E. coli (2 strains), Kl. pneumoniae (1
strain) and Pr. mirabilis (2 strains)

[4] = system: Ps. aeruginosa (6 strains); assay: MIC, two-fold serial agar dilution, group (G-)-III; format: cell-based; conditions: Pseudomonas aeruginosa, read-out: Geometric Mean of MIC
Experimental: as §1
(G-)III: Ps. aeruginosa (6 strains)

[5] = system: M. morganii (1 strain), Ent. cloacae (2 strains) and Ser. marcescens (2 strains); assay: MIC, two-fold serial agar dilution, group (G-)-II; format: cell-based; conditions: read-out: Geometric Mean of MIC
Experimental: as §1
(G-)II: M. morganii (1 strain), Ent. cloacae (2 strains) and Ser.

[6] = system: Cephalothinresistant E. coli (3 strains) and Kl. pneumoniae (3 strains); assay: MIC, two-fold serial agar dilution, group (G-)-Ib; format: cell-based; conditions: Escherichia coli, read-out: Geometric Mean of MIC
Experimental: as §1
(G-)Ib: Cephalothinresistant E. coli (3 strains) and Kl. pneumoniae (3

[7] = system: Penicillinsensitive S. aureus (5 strains); assay: MIC, two-fold serial agar dilution, group (G+)-Ia; format: cell-based; conditions: Staphylococcus aureus; (G+)-Ia, 5 strains, Mueller-Hinton agar; read-out: Geometric Mean of MIC
Experimental: as §1
(G+)Ia: Penicillinsensitive S. aureus (5 strains)

[8] = (G-)-III, 6 strains, Mueller-Hinton agar
[9] = (G-)-II, 5 strains, Mueller-Hinton agar

Compound	MIC [1]	ED50 (P. aeruginosa A9843)	ED50 (S. aureus Smith)	ED50 (E. coli Juhl)	AUC [2]	concentration at 10 min [2]	concentration at 20 min [2]	concentration at 0.5 h [2]	concentration at 40 min [2]	concentration at 50 min [2]	concentration at 1 h [2]	concentration at 1.5 h [2]	concentration at 2 h [2]	half-life [2]	MIC [3]	MIC [4, 8]	MIC [5, 9]	MIC [6]	MIC [7]	MIC [5]	further results
CO/N=C(\C(=O)NC1C(=O)N2C(C(=O)[O-])=C(C[n+]3ccc4sc(NC(C)=O)nc4c3)CS[C@H]12)c1csc(N)n1 (stereo partly shown) [Ip, 7-[(Z)-2-(2-Aminothiazol-4-yl)-2-methoxyiminoacetamido]-3-(2-acetylamino-5-thiazolo[4,5-c]pyridinio)methyl-3-cephem-4-carboxylate]	0.8 µg/mL (≈ 1.36 µM)	16 mg/kg	1 mg/kg	0.29 mg/kg	16000 ng·h/mL	24000 ng/mL	18000 ng/mL	13000 ng/mL	10000 ng/mL	6800 ng/mL	5500 ng/mL	2500 ng/mL	1400 ng/mL	27 min	0.037 µg/mL (≈ 0.0629 µM)	11 µg/mL (≈ 18.7 µM)	0.68 µg/mL (≈ 1.16 µM)	0.4 µg/mL (≈ 0.68 µM)	0.34 µg/mL (≈ 0.578 µM)	–	–
C=CCO/N=C(\C(=O)NC1C(=O)N2C(C(=O)[O-])=C(C[n+]3ccc4scnc4c3)CSC12)c1csc(N)n1 (stereo not shown) [Ic, 7-[(Z)-2-Allyloxyimino-2-(2-aminothiazol-4-yl)acetamido]-3-{(5-thiazolo[4,5-c]pyridino)methyl}-3-cephem-4-carboxylate]	0.56 µg/mL (≈ 1 µM)	8.6 mg/kg	1.1 mg/kg	0.048 mg/kg	12000 ng·h/mL	18000 ng/mL	14000 ng/mL	10000 ng/mL	8200 ng/mL	5800 ng/mL	3600 ng/mL	1900 ng/mL	1300 ng/mL	28 min	0.053 µg/mL (≈ 0.095 µM)	3.9 µg/mL (≈ 6.99 µM)	–	0.44 µg/mL (≈ 0.789 µM)	0.32 µg/mL (≈ 0.574 µM)	0.66 µg/mL (≈ 1.18 µM)	–
CO/N=C(\C(=O)NC1C(=O)N2C(C(=O)[O-])=C(C[n+]3ccc4sc(NC(=O)CN)nc4c3)CS[C@H]12)c1csc(N)n1 (stereo partly shown) [Iq, 7-[(Z)-2-(2-Aminothiazol-4-yl)-2-methoxyiminoacetamido]-3-(2-glycylamino-5-thiazolo[4,5-c]pyridinio)methyl-3-cephem-4-carboxylate]	2.4 µg/mL (≈ 3.98 µM)	12 mg/kg	1.8 mg/kg	0.015 mg/kg	16000 ng·h/mL	15000 ng/mL	17000 ng/mL	12000 ng/mL	11000 ng/mL	9900 ng/mL	8800 ng/mL	3400 ng/mL	1500 ng/mL	28 min	0.038 µg/mL (≈ 0.0629 µM)	10 µg/mL (≈ 16.6 µM)	–	0.61 µg/mL (≈ 1.01 µM)	0.92 µg/mL (≈ 1.52 µM)	0.69 µg/mL (≈ 1.14 µM)	–
Cc1nc2c[n+](CC3=C(C(=O)[O-])N4C(=O)C(NC(=O)/C(=N\OC5(C(=O)O)CCC5)c5csc(N)n5)[C@H]4SC3)ccc2s1 (stereo partly shown) [Im, 7-[(Z)-2-(2-Aminothiazol-4-yl)-2-(1-carboxycyclobut-1-oxyimino)-acetamido]-3-(2-methyl-5-thiazolo[4,5-c]pyridinio)methyl-3-cephem-4-carboxylate]	8.8 µg/mL (≈ 14 µM)	9 mg/kg	9.4 mg/kg	0.1 mg/kg	7100 ng·h/mL	13000 ng/mL	10000 ng/mL	6900 ng/mL	4800 ng/mL	2700 ng/mL	2000 ng/mL	480 ng/mL	< 200 ng/mL	16 min	0.027 µg/mL (≈ 0.0429 µM)	–	0.25 µg/mL (≈ 0.397 µM)	0.56 µg/mL (≈ 0.889 µM)	3.4 µg/mL (≈ 5.4 µM)	–	MIC [4]: 2.5 µg/mL (≈ 3.97 µM)
